Values of other authors, collected in patent publication US20090263467A1, “COMBINATION DRUG THERAPY USING ORALLY DISSOLVING FILM OR ORALLY DISINTEGRATING TABLET DOSAGE FORMS TO TREAT DRY MOUTH AILMENTS” (priority 2008, published 2009).

Experiments:
[1] = neutral pH

Structure (SMILES): CC[C@@H]1C(=O)OC[C@@H]1Cc1cncn1C [Pilocarpine]
- permeability [1]: higher
- half-life: 45.6 min
